For test [1], the system named is mouth of professional panelists. Briefly: Test Experiment 1: sensory evaluation of cooling sensation strength in the mouth. Format: in vivo, human. Particulars: 180 ppm aqueous solution in the mouth, 10 panelists; relative score, Comparative Example 1 taken as 3. As for the experimental part: (§1) [Test Experiment 1] Sensory Evaluation for Comparison of Cooling Sensation Strength between (1S)-p-Menthane-3,8-diol Isomer Mixture, (1RS)-p-Menthane-3,8-diol Isomer Mixture, and (1R)-p-Menthane-3,8-diol Isomer Mixture Aqueous solutions containing 180 ppm of the (1S)-p-menthane-3,8-diol isomer mixture, the (1RS)-p-menthane-3,8-diol isomer mixture, and the (1R)-p-menthane-3,8-diol isomer mixture obtained in Example 1, Example 2, and Comparative Example 1, respectively, were prepared. Sensory evaluation was conducted in the mouth on these 180 ppm aqueous solutions by 10 professional panelists having 5-year or longer experience.

Test [2] shares this test system. Briefly: Test Experiment 2: sensory evaluation of cooling sensation persistence in the mouth. As to conditions: for Cooling sensation persistence time: 180 ppm aqueous solution retained in the mouth 30 seconds, then spit out, time until cooling sensation disappeared, average of 10 panelists; for persistence of cooling sensation effect relative to the (1R)-p-menthane-3,8-diol isomer mixture: 180 ppm aqueous solution, from Table 2. The class given is in vivo, human. As for the experimental part: as §1, with “2]” for “1]”, “Persistence” for “Strength”, “experience. In the sensory evaluation, each 180 ppm aqueous solution was retained in the month for 30 seconds, and then spit out. After that, the time taken until the cooling sensation disappeared was measured, and the average was calculated to evaluate the effect.” for “experience.”

As for `C[C@@H]1CCC(C(C)(C)O)C(O)C1` (mixture of isomers) [Comparative Example 1, (1R)-p-menthane-3,8-diol isomer mixture, reference compound], in test [1], the “Average cooling sensation strength score” value came out at 3. Further, the “Cooling sensation persistence time” value in test [2] turned out to be 4.3 min.
In the case of `C[C@H]1CCC(C(C)(C)O)C(O)C1` (mixture of isomers) [Example 1, (1S)-p-menthane-3,8-diol isomer mixture], the “Average cooling sensation strength score” value in test [1] stood at 15. Besides, in test [2], the “Cooling sensation persistence time” value was 15.5 min and the “persistence of cooling sensation effect relative to the (1R)-p-menthane-3,8-diol isomer mixture” value is given as “approximately 3.6 times”.
On to `CC1CCC(C(C)(C)O)C(O)C1` (racemic) [Example 2, (1RS)-p-menthane-3,8-diol isomer mixture], for which, in test [1], the “Average cooling sensation strength score” value is given as 9. In addition, in test [2], the “Cooling sensation persistence time” value was 9.8 min and the “persistence of cooling sensation effect relative to the (1R)-p-menthane-3,8-diol isomer mixture” value was “approximately 2.3 times”.

(Values after patent US20140219931A1, “P-MENTHANE-3,8-DIOL ISOMER MIXTURE, COOLING SENSATION COMPOSITION COMPRISING THE SAME, AND PRODUCT COMPRISING THE COOLING SENSATION COMPOSITION” (TAKASAGO INTERNATIONAL CORPORATION, priority 2011, published 2014).)
